The NIST ThermoML archive (doi:10.1016/j.jct.2011.11.005)
Several values for one entry are separate records, joined by “and”; a condition that tells them apart may be missing. Equal values may be shown once.

Assays:
[1] = activity coefficient (dimensionless); of the first substance listed, at infinite dilution; xn = mol fraction of the nth substance listed; conditions: 101.3 kPa, Liquid, x1 = 0
[2] = 101.33 kPa, Liquid, Vibrating tube method

COCCOC [1,2-dimethoxyethane] + CC(=O)[O-].CCn1cc[n+](C)c1
[1], Open tubular Wall-Coated Column Chromatography
Conditions	activity coefficient
313 K	3.56
333 K	3.88
353 K	4.11
373 K	4.51
393 K	4.81

C1COCCO1 [1,4-dioxane] + CC(=O)[O-].CCn1cc[n+](C)c1
activity coefficient, [1]
Conditions	333 K	353 K	373 K	393 K	403 K	413 K
Chromatography	–	–	2.56 and 2.43	2.63 and 2.32	2.75 and 2.44	2.77 and 2.46
open tubular wall-coated column chromatography	2.29	2.28	2.39	2.52	2.67	2.58

CC(=O)[O-].CCn1cc[n+](C)c1 [1-ethyl-3-methylimidazolium acetate]
[2]
Conditions	mass density [kg/m3]
293.15 K	1100.87
298.15 K	1097.83
303.15 K	1094.77
308.15 K	1091.71
313.15 K	1088.65
318.15 K	1085.61
323.15 K	1082.57
328.15 K	1079.55
333.15 K	1076.54
338.15 K	1073.54
343.15 K	1070.55
348.15 K	1067.58
353.15 K	1064.61
358.15 K	1061.65

CCC(C)(C)O [2-methylbutan-2-ol] + CC(=O)[O-].CCn1cc[n+](C)c1
[1], Open tubular Wall-Coated Column Chromatography
Conditions	activity coefficient
353 K	0.29
373 K	0.35
393 K	0.42
413 K	0.49

CC(C)(C)O [2-methylpropan-2-ol] + CC(=O)[O-].CCn1cc[n+](C)c1
[1], Open tubular Wall-Coated Column Chromatography
Conditions	activity coefficient
313 K	0.16
333 K	0.18
353 K	0.22
373 K	0.27
393 K	0.3
413 K	0.37

CC#N [acetonitrile] + CC(=O)[O-].CCn1cc[n+](C)c1
activity coefficient, [1]
Conditions	333 K	353 K	373 K	383 K	393 K	403 K
Chromatography	–	–	0.82	0.85 and 0.88	0.87	–
open tubular wall-coated column chromatography	0.76	0.77	0.86	0.91	0.89	1.21

c1ccccc1 [benzene] + CC(=O)[O-].CCn1cc[n+](C)c1
activity coefficient, [1]
Conditions	313 K	333 K	353 K	373 K	383 K	393 K	403 K	413 K
Chromatography	–	–	3.41 and 3.39	3.45 and 3.31	3.49 and 3.62	3.52 and 3.45	4.15 and 3.67	4.1 and 4.11
open tubular wall-coated column chromatography	2.8	3.06	3.43	3.44	3.49	3.68	3.91	4.28

C1CCCCC1 [cyclohexane] + CC(=O)[O-].CCn1cc[n+](C)c1
activity coefficient, [1]
Conditions	313 K	333 K	353 K	373 K	383 K	393 K	413 K
Chromatography	36.2 and 35.5	30.9 and 31.6	27.3 and 29.1	27.4 and 29.3	26.9 and 25.6	26.5 and 28.9	24.8 and 24.3
open tubular wall-coated column chromatography	31.8	31.5	32.8	–	–	30.3	–

CCOC(C)=O [ethyl acetate] + CC(=O)[O-].CCn1cc[n+](C)c1
activity coefficient, [1]
Conditions	313 K	333 K	353 K	373 K	393 K	403 K	413 K
Chromatography	–	5.41 and 4.67	5.48 and 4.72	5.24 and 4.67	5.29 and 4.76	5.47 and 5.05	5.44 and 5.11
open tubular wall-coated column chromatography	4.41	4.77	5.24	5.62	5.35	5.32	–

CCCCCCC [heptane] + CC(=O)[O-].CCn1cc[n+](C)c1
[1], Open tubular Wall-Coated Column Chromatography
Conditions	activity coefficient
313 K	121
333 K	146
353 K	157
373 K	173

C=CCCCC [hex-1-ene] + CC(=O)[O-].CCn1cc[n+](C)c1
activity coefficient, [1]
Conditions	313 K	333 K	353 K	373 K	393 K	413 K
Chromatography	37.8 and 39	34.7 and 35.5	31.3 and 34.8	31 and 33.4	30.6 and 30.1	25 and 27
open tubular wall-coated column chromatography	36	35.1	–	–	–	–

CCCCCC [hexane] + CC(=O)[O-].CCn1cc[n+](C)c1
activity coefficient, [1]
Conditions	313 K	333 K	353 K	373 K	393 K	413 K
Chromatography	86.4 and 90.5	82.4 and 80.7	65.9 and 71.3	66.1 and 72.7	58.8 and 55.3	91.2 and 66.5
open tubular wall-coated column chromatography	86.5	80	70.6	–	–	–

C[N+](=O)[O-] [nitromethane] + CC(=O)[O-].CCn1cc[n+](C)c1
[1], Open tubular Wall-Coated Column Chromatography
Conditions	activity coefficient
353 K	0.44
373 K	0.46
393 K	0.46

CCCO [propan-1-ol] + CC(=O)[O-].CCn1cc[n+](C)c1
[1], Open tubular Wall-Coated Column Chromatography
Conditions	activity coefficient
313 K	0.06
333 K	0.07
353 K	0.09
373 K	0.1
393 K	0.11
413 K	0.13

CC(C)O [propan-2-ol] + CC(=O)[O-].CCn1cc[n+](C)c1
[1], Open tubular Wall-Coated Column Chromatography
Conditions	activity coefficient
313 K	0.08
333 K	0.11
353 K	0.13
373 K	0.15
393 K	0.16
413 K	0.19

C1CCOC1 [tetrahydrofuran] + CC(=O)[O-].CCn1cc[n+](C)c1
activity coefficient, [1]
Conditions	313 K	333 K	353 K	373 K	383 K	393 K	403 K	413 K
Chromatography	–	3.91 and 3.36	3.92 and 3.37	3.68 and 3.5	–	3.88 and 3.35	4.02 and 3.55	4.13 and 3.9
open tubular wall-coated column chromatography	3.22	3.49	3.63	3.67	3.94	4.02	4	–

Cc1ccccc1 [toluene] + CC(=O)[O-].CCn1cc[n+](C)c1
activity coefficient, [1]
Conditions	313 K	333 K	353 K	363 K	373 K	383 K	393 K	403 K	413 K
Chromatography	–	–	–	6.07 and 6.21	6.08 and 5.92	6.12 and 6.03	6.23 and 5.87	6.28 and 6.04	7.11 and 6.37
open tubular wall-coated column chromatography	5.01	5.41	5.76	5.81	5.88	6.03	6.13	6.47	6.55
